According to patent US8354436B2 (4SC Discovery GmbH, priority 2011, dated 2013):
Where two headings read alike, the source gives them in different places.

Columns and labels:
Type in all cases: cell-based
IL-17FF = IL-17FF production by PHA-stimulated human PBMC (human IL-17F ELI-Pair); settings: 48 hours
Description: Analysis of Proliferation of and Cytokine Production by Human PBMC Stimulated with PHA
Peripheral blood mononuclear cells (PBMC) from healthy human donors were purified using Accuspin™ System-Histopaque-1077 (Sigma) according to the protocol recommended by the manufacturer. Purified PBMC were then washed twice with phosphate-buffered saline (PBS) and resuspended in RPMI1640 culture medium supplemented with 10% dialyzed heat inactivated fetal calf serum, 1.5 mM L-glutamine, 100 U penicillin/ml, and […] (all from PAN Biotech, Aidenbach, Germany). For stimulation, PBMC were seeded at 1×10^5 cells/well, activated with 2 μg/ml phytohaemagglutinin (PHA, Sigma) and incubated with the test compounds for 48 hours. IL-17A, IL-17F and INF-γ were then determined in the culture supernatant using a Luminex BioPlex system, following the manufacturer's instructions (BioRad, Munich, Germany). For screening, compounds were used at 10, 1, 0.1 and 0.01 μM. To determine the IC50, compounds were titrated semilogarithmically.
Cytokines were determined in the aforementioned culture supernatant using the following methods: IL-17AA/AF was measured using the Luminex BioPlex system (BioRad, Munich, Germany); IL-17AA using the human homodimer IL-17A ELISA Ready Set Go Kit from eBioscience (Frankfurt, Germany); IL-17FF using the human IL-17F ELI-Pair from Hölzel DiagnosticaGmBH (Köln, Germany); and IFN-γ using the OptEIA human IFN-g ELISA from BD Bioscience (Heidelberg, Germany), all following the manufacturer's instructions.

IFN-γ = IFN-γ production by PHA-stimulated human PBMC (OptEIA human IFN-g ELISA); settings: 48 hours
How it was run: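 PBMC from healthy donors, 1×10^5/well, 2 μg/ml PHA + compound, 48 h. Supernatant cytokine by Luminex bead assay or ELISA as listed. Screen at 10/1/0.1/0.01 μM; IC50 via semilog titration.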

[1] = test system: PBMC from healthy human donors; assay: T cell proliferation assay (PHA-stimulated human PBMC, BrdU ELISA); settings: PHA-stimulated human PBMC, 48 hours, column D, read-out: IC50 (Tcell proliferation)
Description: Cell proliferation was analysed using the BrdU based cell proliferation ELISA from Roche (Mannheim, Germany) according to the manufacturer's instructions. T Cell Proliferation Assay Peripheral blood mononuclear cells (PBMC) from healthy human donors were isolated by centrifugation over Ficoll-Hypaque (Sigma-Aldrich, Germany) according to manufacturer's instructions. Purified PBMC were washed twice with PBS and resuspended in RPMI1640 culture medium supplemented with 10% dialyzed heat inactivated fetal calf serum, 1.5 mM L-glutamine, 100 U penicillin/ml, and […] (all from PAN Biotech, Aidenbach, Germany). For stimulation, PBMC were seeded at 1×10^5 cells/well, activated with 2 μg/ml phytohaemagglutinin (PHA, Sigma) and incubated with the test compound. After 48 hours proliferation was measured using the BrdU based cell proliferation ELISA from Roche (Mannheim, Germany) according to the manual.

[2] = PHA-stimulated human PBMC, column B, read-out: IC50 (IL-17FF)
[3] = PHA-stimulated human PBMC, column C, read-out: IC50 (IFNγ)
[4] = human PBMC, 2 μg/ml PHA, read-out: B: IC50 (IL-17FF)
[5] = human PBMC, 2 μg/ml PHA, read-out: C: IC50 (IFNγ)

SMILES | IC50 (IL-17FF; [2]) [µM] | IC50 (IFN-γ; [3]) [µM] | IC50 (IL-17FF; [4]) [µM] | IC50 (IFN-γ; [5]) [µM] | IC50 [1] [µM]
COC(=O)c1sccc1-n1ncc(-c2onc(-c3c(F)cccc3Cl)c2C(=O)OC)c1C(F)(F)F [Example I-14, methyl 3-(2-chloro-6-fluorophenyl)-5-(1-(2-(methoxycarbonyl)thiophen-3-yl)-5-(trifluoromethyl)-1H-pyrazol-4-yl)isoxazole-4-carboxylate] | 0.01 to 0.1 | 0.1 to 1 | – | – | –
COC(=O)c1c(-c2c(F)cccc2Cl)noc1-c1cnn(-c2ccc([N+](=O)[O-])cc2)c1C(F)(F)F [Example I-69, methyl 3-(2-chloro-6-fluorophenyl)-5-(1-(4-nitrophenyl)-5-(trifluoromethyl)-1H-pyrazol-4-yl)isoxazole-4-carboxylate] | 1 to 10 | 1 to 10 | – | – | –
CN(C)C(=O)c1c(-c2c(F)cccc2Cl)noc1-c1cnn(-c2ccccc2F)c1C(F)(F)F [Example I-20, 3-(2-chloro-6-fluorophenyl)-5-(1-(2-fluorophenyl)-5-(trifluoromethyl)-1H-pyrazol-4-yl)-N,N-dimethylisoxazole-4-carboxamide] | 1 to 10 | 1 to 10 | – | – | –
CNC(=O)c1c(-c2c(F)cccc2Cl)noc1-c1cnn(-c2ccccc2OC)c1C(F)(F)F [Example I-60, 3-(2-chloro-6-fluorophenyl)-5-(1-(2-methoxyphenyl)-5-(trifluoromethyl)-1H-pyrazol-4-yl)-N-methylisoxazole-4-carboxamide] | 1 to 10 | 1 to 10 | – | – | –
COC(=O)c1c(-c2c(F)cccc2Cl)noc1-c1cnn(-c2ccc(S(N)(=O)=O)cc2)c1C(F)(F)F [Example I-86, methyl 3-(2-chloro-6-fluorophenyl)-5-(1-(4-sulfamoylphenyl)-5-(trifluoromethyl)-1H-pyrazol-4-yl)isoxazole-4-carboxylate] | 1 to 10 | 1 to 10 | – | – | –
CC(=O)Nc1cccc(-n2ncc(-c3onc(-c4c(F)cccc4Cl)c3-c3nnco3)c2C(F)(F)F)c1 [Example B-13, N-(3-(4-(3-(2-chloro-6-fluorophenyl)-4-(1,3,4-oxadiazol-2-yl)isoxazol-5-yl)-5-(trifluoromethyl)-1H-pyrazol-1-yl)phenyl)acetamide] | – | – | 1 to 10 | 1 to 10 | –
CCOC(=O)c1c(-c2onc(-c3c(F)cccc3Cl)c2C(=O)OC)cnn1-c1cccc(Cl)c1Cl [Example I-9, methyl 3-(2-chloro-6-fluorophenyl)-5-(1-(2,3-dichlorophenyl)-5-(ethoxycarbonyl)-1H-pyrazol-4-yl)isoxazole-4-carboxylate] | 1 to 10 | – | – | – | 1 to 10
CC(=O)Nc1cccc(-n2ncc(-c3onc(-c4c(F)cccc4Cl)c3-c3nnc(C)o3)c2C(F)(F)F)c1 [Example B-11, N-(3-(4-(3-(2-chloro-6-fluorophenyl)-4-(5-methyl-1,3,4-oxadiazol-2-yl)isoxazol-5-yl)-5-(trifluoromethyl)-1H-pyrazol-1-yl)phenyl)acetamide] | – | – | 1 to 10 | 0.1 to 1 | –
CCOC(=O)c1csc(-n2ncc(-c3onc(-c4c(F)cccc4Cl)c3C(=O)OC)c2C(F)(F)F)n1 [Example I-53, methyl 3-(2-chloro-6-fluorophenyl)-5-(1-(4-(ethoxycarbonyl)thiazol-2-yl)-5-(trifluoromethyl)-1H-pyrazol-4-yl)isoxazole-4-carboxylate] | 1 to 10 | 1 to 10 | – | – | –
CNC(=O)c1c(-c2c(F)cccc2Cl)noc1-c1cnn(CC(C)C)c1C(F)(F)F [Example I-37, 3-(2-chloro-6-fluorophenyl)-5-(1-isobutyl-5-(trifluoromethyl)-1H-pyrazol-4-yl)-N-methylisoxazole-4-carboxamide] | 0.1 to 1 | 1 to 10 | – | – | –
CNC(=O)c1c(-c2c(F)cccc2Cl)noc1-c1cnn(-c2cc(F)cc(F)c2)c1C(F)(F)F [Example I-58, 3-(2-chloro-6-fluorophenyl)-5-(1-(3,5-difluorophenyl)-5-(trifluoromethyl)-1H-pyrazol-4-yl)-N-methylisoxazole-4-carboxamide] | 1 to 10 | 0.1 to 1 | – | – | –
CCOC(=O)c1c(-c2ccc(Cl)cc2)noc1-c1cnn(-c2cccc(Cl)c2)c1C(F)(F)F [Example I-77, ethyl 3-(4-chlorophenyl)-5-(1-(3-chlorophenyl)-5-(trifluoromethyl)-1H-pyrazol-4-yl)isoxazole-4-carboxylate] | 1 to 10 | – | – | – | 1 to 10
COc1cc(OC)c(CNC(=O)c2c(-c3c(F)cccc3Cl)noc2-c2cnn(-c3ccccc3F)c2C(F)(F)F)c(OC)c1 [Example I-2, 3-(2-chloro-6-fluorophenyl)-5-(1-(2-fluorophenyl)-5-(trifluoromethyl)-1H-pyrazol-4-yl)-N-(2,4,6-trimethoxyben-zyl)isoxazole-4-carboxamide] | 1 to 10 | 1 to 10 | – | – | –

Second part, led by results:

IC50 (IL-17FF; [2]) [µM] | IC50 (IFN-γ; [3]) [µM] | IC50 (IL-17FF; [4]) [µM] | IC50 (IFN-γ; [5]) [µM] | SMILES | IC50 [1] [µM]
1 to 10 | 1 to 10 | – | – | Fc1cc(F)c(F)c(-n2ncc(-c3onc(-c4c(F)cccc4Cl)c3Br)c2C(F)(F)F)c1F [Example I-144, 4-bromo-3-(2-chloro-6-fluorophenyl)-5-(1-(2,3,5,6-tetrafluorophenyl)-5-(trifluoromethyl)-1H-pyrazol-4-yl)isoxazole] | –
1 to 10 | 1 to 10 | – | – | CNC(=O)c1c(-c2c(F)cccc2Cl)noc1-c1cnn(-c2ccncc2)c1C(F)(F)F [IB-58, 3-(2-chloro-6-fluorophenyl)-N-methyl-5-(1-(pyridin-4-yl)-5-(trifluoromethyl)-1H-pyrazol-4-yl)isoxazole-4-carboxamide] | –
1 to 10 | 1 to 10 | – | – | CNC(=O)c1c(-c2cccc(F)c2)noc1-c1cnn(-c2cccc(F)c2)c1C(F)(F)F [Example I-105, 3-(3-fluorophenyl)-5-(1-(3-fluorophenyl)-5-(trifluoromethyl)-1H-pyrazol-4-yl)-N-methylisoxazole-4-carboxamide] | –
1 to 10 | 1 to 10 | – | – | CNC(=O)c1c(-c2ccccc2)noc1-c1cnn(-c2cc(F)cc(F)c2)c1C(F)(F)F [Example I-113, 5-(1-(3,5-difluorophenyl)-5-(trifluoromethyl)-1H-pyrazol-4-yl)-N-methyl-3-phenylisoxazole-4-carboxamide] | –
1 to 10 | 1 to 10 | – | – | CCOC(=O)c1c(-c2c(F)cccc2Cl)noc1-c1cnn(Cc2ccncc2)c1C(F)(F)F [IB-85, ethyl 3-(2-chloro-6-fluorophenyl)-5-(1-(pyridin-4-ylmethyl)-5-(trifluoromethyl)-1H-pyrazol-4-yl)isoxazole-4-carboxylate] | –
1 to 10 | 1 to 10 | – | – | CCOC(=O)c1c(-c2ccc(OC)cc2)noc1-c1cnn(-c2cccc(F)c2)c1C(F)(F)F [Example I-100, ethyl 5-(1-(3-fluorophenyl)-5-(trifluoromethyl)-1H-pyrazol-4-yl)-3-(4-methoxyphenyl)isoxazole-4-carboxylate] | –
1 to 10 | 1 to 10 | – | – | NS(=O)(=O)c1cccc(-n2ncc(-c3onc(-c4c(F)cccc4Cl)c3C(=O)N3CCCO3)c2C(F)(F)F)c1 [IB-65, 3-(4-(3-(2-chloro-6-fluorophenyl)-4-(isoxazolidine-2-carbonyl)isoxazol-5-yl)-5-(trifluoromethyl)-1H-pyrazol-1-yl)benzenesulfonamide] | –
1 to 10 | 1 to 10 | – | – | CCOC(=O)c1c(-c2c(F)cccc2Cl)noc1-c1cnn(Cc2ccccn2)c1C(F)(F)F [IB-104, ethyl 3-(2-chloro-6-fluorophenyl)-5-(1-(pyridin-2-ylmethyl)-5-(trifluoromethyl)-1H-pyrazol-4-yl)isoxazole-4-carboxylate] | –
1 to 10 | 1 to 10 | – | – | CC(=O)Nc1cccc(-n2ncc(-c3onc(-c4c(F)cccc4Cl)c3C(=O)N3CCCO3)c2C(F)(F)F)c1 [IB-88, N-(3-(4-(3-(2-chloro-6-fluorophenyl)-4-(isoxazolidine-2-carbonyl)isoxazol-5-yl)-5-(trifluoromethyl)-1H-pyrazol-1-yl)phenyl)acetamide] | –
1 to 10 | – | – | – | O=CNc1c(-c2c(F)cccc2Cl)noc1-c1cnn(-c2cccc(Cl)c2)c1C(F)(F)F [IB-48, N-(3-(2-chloro-6-fluorophenyl)-5-(1-(3-chlorophenyl)-5-(trifluoromethyl)-1H-pyrazol-4-yl)isoxazol-4-yl)formamide] | 1 to 10
